Laboratory results reported in US11795457B2, “Compositions and methods for treatment of Friedreich's Ataxia” (The Board of Regents of The University of Texas System, priority 2014, dated 2023).
Like-named read-outs stand apart in the source and are kept apart here. Oligonucleotides are written 5' to 3', each unit as a sugar letter and its base; * is a phosphorothioate linkage, no mark a phosphodiester; rarer units and linkages stand in square brackets, end groups in braces. Plain capitals give the bases only. l = locked nucleic acid (LNA); d = 2'-deoxy (DNA)

Columns and labels:
frataxin protein = details: patients, daily oral administration, cited from earlier work
Tm of siRNA duplex = format: physicochemical
FXN protein = FXN protein expression by western blot in FRDA patient-derived fibroblast cells; format: cell-based, human; details: GM03816 cells; for FXN protein expression, LNAs: 12.5 nM, day 4 (FIGS. 4B-E)
Protocol: (§1) Tissue culture and transfection of synthetic nucleic acids. Fibroblast cells (Coriell Institute, GM03816 and GM02513) were cultured in minimum essential medium (MEM) supplemented with 10% FBS and 1% NEAA. All cells were grown at 37° C. in 5% Co2. Lipofectamine RNAiMAX (Invitrogen) was used to transfect siRNAs or LNA following the manufacturer's recommended protocol in OptiMEM low serum medium (Invitrogen). Growth media was changed to full medium after 24 h. Transfected cells were harvested 72 h after transfection for RNA extraction and qPCR analyses, and 96 h after transfection for western blot analysis. Sequences of siRNAs and RNAs used in these studies are listed in Table S1 and Table S2, respectively.
Western blot analysis. Cell extracts were prepared using lysis buffer supplemented with 1% Protease Inhibitor Cocktail Set I (Calbiochem) as described previously (Punga & Buhler, 2010). Protein was separated on 4-20% gradient or 15% SDS-PAGE TGX pre-cast gels (BioRad). After gel electrophoresis, proteins were transferred to nitrocellulose membrane (Hybond-C Extra, GE Healthcare Life Sciences) at 100 V for 45-60 min. Membranes were blocked for 30 min at room temperature with 5% milk protein in PBS+0.05% TWEEN-20 (PBST).
Blocked membranes were incubated with the primary antibodies at 4° C. in PBST and 5% milk with rocking overnight: anti-FXN at 1:300 (Abcam, ab110328), anti-tubulin at 1:6000-10000 (Sigma-Aldrich, T5201). After primary antibody incubation, membranes were washed 3 times for 5 min at room temperature with PBST then incubated for 30-45 min at room temperature with HRP-conjugated anti-mouse (Jackson Laboratories, 715-035-150) in PBST+5% milk. Membranes were washed again 3× for 15 min in PBST at room temperature, then protein bands visualized using SuperSignal West Pico Chemiluminescent Substrate (Thermo Scientific). For quantification of protein levels from Western blots of cellular fractions, films were scanned and bands quantified using ImageJ.
HDAC inhibitor and mRNA stability assay. Histone deacetylase inhibitor BML-210 (Abcam) (5 μM) was applied to FRDA fibroblast cells (GM03816) by following the procedure described in Herman et al (2006)^27. Cells were collected for qPCR and Western blot analyses as mentioned above. For mRNA stability assay, cells were transfected with siGAA or CM as above, and 5 μg/mL actinomycin D (Sigma) was added with fresh media 3 day after transfection, and cells were collected at the indicated time points for RNA extraction and qPCR analysis.

[1] = tested on: interferon responsive genes; assay: qPCR of interferon responsive genes (off-target); format: cell-based, human; details: GM03816 cells, 25 nM, 3 days after transfection, compared with CM control
Protocol: as §1
Quantitative PCR. Identical volumes of RNA (representing approximately the same number of cells and ranging from 1-2 μg of RNA) were treated with 2 units of DNase I (Worthington) in DNase I buffer (10 mM Tris-HCl, pH 7.0, 10 mM NaCl, 2 mM MgCl2, 0.5 mM CaCl2)) for 15 min at room temperature to degrade any genomic DNA contamination. Afterwards, DNase I heat-inactivated at 75° C. for 10 min. Treated RNAs were reverse-transcribed using the High Capacity cDNA Reverse Transcription Kit (Applied Biosystems). Quantitative PCR (qPCR) was performed using SYBR Supermix (Biorad) with ˜50 ng of cDNA as template. Data were normalized relative to measured HPRT levels.

[2] = tested on: histone H3 and H4 acetylation, FXN mRNA and protein; details: lymphoid cells or primary lymphocytes; cited from earlier work
FXN mRNA = FXN mRNA expression by quantitative PCR in FRDA patient-derived fibroblast cells; format: cell-based, human; details: GM03816 cells, 5 μM, averaged quadruplicate experiments (FIG. 2B)
Protocol: Tissue culture and transfection of synthetic nucleic acids. Fibroblast cells (Coriell Institute, GM03816 and GM02513) were cultured in minimum essential medium (MEM) supplemented with 10% FBS and 1% NEAA. All cells were grown at 37° C. in 5% Co2. Lipofectamine RNAiMAX (Invitrogen) was used to transfect siRNAs or LNA following the manufacturer's recommended protocol in OptiMEM low serum medium (Invitrogen). Growth media was changed to full medium after 24 h. Transfected cells were harvested 72 h after transfection for RNA extraction and qPCR analyses, and 96 h after transfection for western blot analysis. Sequences of siRNAs and RNAs used in these studies are listed in Table S1 and Table S2, respectively. Quantitative PCR. Identical volumes of RNA (representing approximately the same number of cells and ranging from 1-2 μg of RNA) were treated with 2 units of DNase I (Worthington) in DNase I buffer (10 mM Tris-HCl, pH 7.0, 10 mM NaCl, 2 mM MgCl2, 0.5 mM CaCl2)) for 15 min at room temperature to degrade any genomic DNA contamination. Afterwards, DNase I heat-inactivated at 75° C. for 10 min. Treated RNAs were reverse-transcribed using the High Capacity cDNA Reverse Transcription Kit (Applied Biosystems). Quantitative PCR (qPCR) was performed using SYBR Supermix (Biorad) with ˜50 ng of cDNA as template. Data were normalized relative to measured HPRT levels. […]

FXN = FXN expression in FRDA patient-derived cells, mRNA or protein not specified; format: cell-based, human; details: GM03816 cells, 25 nM (FIG. 3B)
Protocol: as §1

Question: With `NC(=O)c1cccnc1` [nicotinamide] as the molecule, how does the “Increase of frataxin protein concentration” value (frataxin protein; 3.8 g) read?
Answer: The value was 1.5 times.

Question: And the “Increase of frataxin protein concentration” value (frataxin protein; 7-5 g)?
Answer: Its value is “doubling”.

Question: With “siAAG5mm: similar to siAAG but has five mismatches: ss AACAATAATACGCAGAAGAdTdT (SEQ ID NO: 17), as SEQ ID NO: 18 (sense AACAATAATACGCAGAAGANN; antisense UCUUCUGCGUAUUAUUGUUNN; dTdT overhangs; modified_base (20)..(21) n = thymidine; (20)..(21) n is a, c, g, t or u) [reference compound]” as the molecule, how does the Tm for duplex (Tm of siRNA duplex) read?
Answer: Its Tm for duplex is 63.24 ^+C.

Question: With “siAAG: duplex RNA: ss AAGAAGAAGAAGAAGAAGAdTdT (SEQ ID NO: 2), as UCUUCUUCUUCUUCUUCUUdTdT (SEQ ID NO: 10) (sense AAGAAGAAGAAGAAGAAGANN; antisense UCUUCUUCUUCUUCUUCUUNN; dTdT overhangs; modified_base (20)..(21) n = thymidine; (20)..(21) n is a, c, g, t or u)” as the molecule, how does the Tm for duplex (Tm of siRNA duplex) read?
Answer: The Tm for duplex was 64.67 ^+C.

Question: Which “FXN protein expression, LNAs” value (FXN protein) does the source give for “PS-LNA13: LNA with PS backbone complementary to antisense RNA, AGAAGAAGAAGAAGAAGAA (SEQ ID NO: 35) (lA*dG*lA*lA*dG*lA*lA*dG*lA*lA*dG*lA*lA*dG*lA*lA*dG*lA*lA)” here?
Answer: The value was “inert”.

Question: With “PS-LNA11: LNA with PS backbone complementary to antisense RNA, GAAGAAGAAGAAGAAGAAG (SEQ ID NO: 33) (dG*lA*lA*dG*lA*lA*dG*lA*lA*dG*lA*lA*dG*lA*lA*dG*lA*lA*dG)” as the molecule, how does the “FXN protein expression, LNAs” value (FXN protein) read?
Answer: The value was “inert”.

Question: Which Tm for duplex (Tm of siRNA duplex) does the source give for “siGAA: duplex RNA: ss GAAGAAGAAGAAGAAGAAGdTdT (SEQ ID NO: 1), as CUUCUUCUUCUUCUUCUUCdTdT (SEQ ID NO: 9) (sense GAAGAAGAAGAAGAAGAAGNN; antisense CUUCUUCUUCUUCUUCUUCNN; dTdT overhangs; modified_base (20)..(21) n = thymidine; (20)..(21) n is a, c, g, t or u)” here?
Answer: Its Tm for duplex is 65.64 ^+C.

Question: What about the “mRNA expression of interferon responsive genes” value [1] of the same molecule?
Answer: Its value is “does not induce expression of interferon responsive genes”.

Question: What about the “FXN protein expression (dose response profile)” value (FXN protein; day 4 (FIG. 1F)) of the same molecule?
Answer: The value was “upregulation of FXN protein expression”.

Question: Which Tm for duplex (Tm of siRNA duplex) does the source give for “siAGA: duplex RNA: ss AGAAGAAGAAGAAGAAGAAdTdT (SEQ ID NO: 11), as UUCUUCUUCUUCUUCUUCUdTdT (SEQ ID NO: 12) (sense AGAAGAAGAAGAAGAAGAANN; antisense UUCUUCUUCUUCUUCUUCUNN; dTdT overhangs; modified_base (20)..(21) n = thymidine; (20)..(21) n is a, c, g, t or u)” here?
Answer: The Tm for duplex was 64.3 ^+C.

Question: Which “FXN protein expression, LNAs” value (FXN protein) does the source give for “PS-LNA12: LNA with PS backbone complementary to antisense RNA, AAGAAGAAGAAGAAGAAGA (SEQ ID NO: 34) (dA*dA*lG*dA*dA*lG*dA*dA*lG*dA*dA*lG*dA*dA*lG*dA*dA*lG*dA)” here?
Answer: The value was “inert”.

Question: Which Tm for duplex (Tm of siRNA duplex) does the source give for “scramble: duplex RNA in which the sequences of siGAA and siAAG are mixed: ss GAGAAAGAGAAAAGGAAAGdTdT (SEQ ID NO: 15), as SEQ ID NO: 16 (sense GAGAAAGAGAAAAGGAAAGNN; antisense CUUUCCUUUUCUCUUUCUCNN; dTdT overhangs; modified_base (20)..(21) n = thymidine; (20)..(21) n is a, c, g, t or u) [reference compound]” here?
Answer: The Tm for duplex was 66.13 ^+C.

Question: With `Nc1ccccc1NC(=O)CCCCCCC(=O)Nc1ccccc1` [BML210] as the molecule, how does the “Acetylation of histone H3 and H4 and FXN mRNA and protein” value [2] read?
Answer: The value was “increased acetylation of histone H3 and H4 leading to upregulation of FXN mRNA and protein”.

Question: What about the “FXN mRNA levels” value (FXN mRNA) of the same molecule?
Answer: The value was “did not reveal a significant increase”.

Question: And the FXN protein levels (FXN protein; 5 μM, averaged quadruplicate experiments (FIG. 2C))?
Answer: Its FXN protein levels is “did not reveal a significant increase”.

Question: Which Tm for duplex (Tm of siRNA duplex) does the source give for “siExon3: positive control for transfection efficiency targeting exon 3 of FXN: ss GACCACCUAUGAAAGACUAdTdT (SEQ ID NO: 21), as SEQ ID NO: 22 (sense GACCACCUAUGAAAGACUANN; antisense UAGUCUUUCAUAGGUGGUCNN; dTdT overhangs; modified_base (20)..(21) n = thymidine; (20)..(21) n is a, c, g, t or u) [reference compound]” here?
Answer: Its Tm for duplex is 73.65 ^+C.

Question: Which Tm for duplex (Tm of siRNA duplex) does the source give for “siExon2: duplex siRNA that targets FXN exon: ss GAGUGUCUAUUUGAUGAAUdTdT (SEQ ID NO: 13), as SEQ ID NO: 14 (sense GAGUGUCUAUUUGAUGAAUNN; antisense AUUCAUCAAAUAGACACUCNN; dTdT overhangs; modified_base (20)..(21) n = thymidine; (20)..(21) n is a, c, g, t or u) [reference compound]” here?
Answer: Its Tm for duplex is 64.53 ^+C.

Question: For “siGAA9,10mm: anti-GAA duplex RNA with central mismatches on both strands: ss GAAGAAGAUCAAGAAGAAGdTdT (SEQ ID NO: 19), as CUUCUUCUUAGUCUUCUUCdTdT (SEQ ID NO: 20) (sense GAAGAAGAUCAAGAAGAAGNN; antisense CUUCUUCUUAGUCUUCUUCDTDT; dTdT overhangs; modified_base (20)..(21) n = thymidine; (20)..(21) n is a, c, g, t or u)”, which “Activation of FXN expression by duplex with central mismatches” value (FXN; listed as siGAA 9.10 mm) is on record?
Answer: Its value is “activates FXN expression at a level similar to the analogous fully complementary duplex RNA”.

Question: What about the “Activation of FXN expression by duplex with central mismatches” value (FXN; listed as siGAA9.10 mm) of the same molecule?
Answer: The value was “activated FXN expression as well as fully complementary duplexes siGAA or siAAG”.

Question: And the Tm for duplex (Tm of siRNA duplex)?
Answer: The Tm for duplex was 54.4 ^+C.
